Tests used:
[1] = target: T1, bovine serum albumin (BSA) (Bos taurus, UniProt P02769); experiment: Trp fluorescence quenching of BSA (Stern–Volmer analysis); assay type: binding; parameters: Kq value (Stern–Volmer quenching constant) against BSA: unit not given here; conditions: 0.3 mg/mL BSA; for Kq value (Stern–Volmer quenching constant) against BSA: 20 °C, 50 mM sodium phosphate buffer pH 7.0, excitation 280 nm, means ± SE
T1 construct: BSA (F-V) and HSA (F-V) were purchased from Nacalai Tesque (Kyoto, Japan); purchased Nacalai Tesque (Kyoto, Japan)
Method: The fluorescence spectra of another natural catechin was also measured (data not shown).
From the data obtained by fluorescence analysis, the Stern–Volmer quenching constants (Kq values) were calculated by the Stern–Volmer relationship.
(§1) Analysis of fluorescence quenching was performed as described previously. A series of mixtures was prepared with catechins or their derivatives at various concentrations (as indicated in each figure legend) and a fixed concentration of BSA (0.3 mg/mL). After the mixture was incubated at 20 °C for 20 min, the fluorescence spectrum of BSA in the mixture was measured at 20 °C in 50 mM sodium phosphate buffer (pH 7.0) at an excitation wavelength of 280 nm and with emission in the range 290–450 nm. All measurements were performed in triplicate. Fluorescence quenching data were analyzed by the Stern–Volmer equation (Equation (1)): F0 = F (1 + Kq × Q),(1) where F0 and F are the relative fluorescence intensities of BSA without and with catechin, respectively, Kq is the Stern–Volmer quenching constant, and Q is the concentration of catechin.

[2] = target: T2, human serum albumin (HSA) (Homo sapiens, UniProt P02768); experiment: Trp fluorescence quenching of HSA (Stern–Volmer analysis); assay type: binding; parameters: unit not given here; conditions: 0.3 mg/mL HSA, excitation 280 nm; means ± SE
T2 construct: BSA (F-V) and HSA (F-V) were purchased from Nacalai Tesque (Kyoto, Japan); purchased Nacalai Tesque (Kyoto, Japan)
Method: Finally, we investigated the interaction between HSA and catechins and their derivatives (Figure 6). HSA has one Trp residue (Trp-214) located in drug-binding site I, and this residue behaves similarly to the Trp-213 of BSA [22]. […] Moreover, shift of the fluorescence peak wavelength against HSA was weaker than that against BSA.
as §1

T1 sequence (P02769 25-607): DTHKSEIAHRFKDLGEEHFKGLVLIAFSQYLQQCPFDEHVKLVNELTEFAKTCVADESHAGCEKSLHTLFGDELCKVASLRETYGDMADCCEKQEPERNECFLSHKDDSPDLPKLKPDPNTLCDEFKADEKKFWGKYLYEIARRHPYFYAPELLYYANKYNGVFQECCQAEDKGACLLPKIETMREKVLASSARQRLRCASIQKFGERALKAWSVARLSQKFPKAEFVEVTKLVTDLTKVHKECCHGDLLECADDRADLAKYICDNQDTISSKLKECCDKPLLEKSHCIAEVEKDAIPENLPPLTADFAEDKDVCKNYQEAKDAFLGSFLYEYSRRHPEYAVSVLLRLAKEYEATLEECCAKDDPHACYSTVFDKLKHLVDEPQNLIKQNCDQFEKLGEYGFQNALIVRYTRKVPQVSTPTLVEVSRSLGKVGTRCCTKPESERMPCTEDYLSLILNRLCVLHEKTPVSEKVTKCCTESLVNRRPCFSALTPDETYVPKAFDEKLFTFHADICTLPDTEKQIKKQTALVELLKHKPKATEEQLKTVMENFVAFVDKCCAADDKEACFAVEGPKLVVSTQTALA
T2 sequence (P02768 25-609): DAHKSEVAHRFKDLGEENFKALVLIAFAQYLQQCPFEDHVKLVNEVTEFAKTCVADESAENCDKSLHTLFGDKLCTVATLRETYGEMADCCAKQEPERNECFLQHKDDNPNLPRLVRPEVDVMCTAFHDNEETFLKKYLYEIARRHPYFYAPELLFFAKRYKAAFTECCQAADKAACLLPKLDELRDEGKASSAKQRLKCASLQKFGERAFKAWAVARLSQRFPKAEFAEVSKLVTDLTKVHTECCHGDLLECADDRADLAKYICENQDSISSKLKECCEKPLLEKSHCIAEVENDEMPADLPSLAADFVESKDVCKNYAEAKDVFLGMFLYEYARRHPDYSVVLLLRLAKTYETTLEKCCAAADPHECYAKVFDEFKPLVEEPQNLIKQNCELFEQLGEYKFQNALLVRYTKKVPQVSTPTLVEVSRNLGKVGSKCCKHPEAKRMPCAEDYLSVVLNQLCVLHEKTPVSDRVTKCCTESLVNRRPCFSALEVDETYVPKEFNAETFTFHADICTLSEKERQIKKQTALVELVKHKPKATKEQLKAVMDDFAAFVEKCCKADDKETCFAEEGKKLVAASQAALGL

Kq value (Stern–Volmer quenching constant) against BSA [1] | Kq value (Stern–Volmer quenching constant) against HSA [2] | effect on fluorescence intensity of Trp residues of BSA ([1]; excitation 280 nm) | shift of fluorescence peak wavelength of BSA ([1]; excitation 280 nm) | SMILES
0.060 ± 0.0118 | 0.007 ± 0.0011 |  |  | O=C(O[C@@H]1Cc2c(O)cc(O)cc2O[C@@H]1c1ccc(O)c(O)c1)c1cc(O)c(O)c(O)c1 [ECg]
0.005 ± 0.0003 | 0.002 ± 0.0001 |  |  | Oc1cc(O)c2c(c1)O[C@H](c1ccc(O)c(O)c1)[C@@H](O)C2 [(+)-C, catechin]
0.005 ± 0.0011 | 0.006 ± 0.0013 |  |  | Oc1cc(O)c2c(c1)O[C@H](c1ccc(O)c(O)c1)[C@H](O)C2 [(−)-EC, epicatechin]
0.150 ± 0.0109 | 0.014 ± 0.0021 |  |  | COc1cc(C(=O)O[C@@H]2Cc3c(O)cc(O)cc3O[C@@H]2c2cc(O)c(O)c(O)c2)cc(O)c1O [Methyl-EGCg, epigallocatechin-3-O-methyl gallate]
0.225 ± 0.0192 | 0.033 ± 0.0065 | decreased in a dose-dependent manner | red-shifted | O=C(O[C@@H]1Cc2c(O)cc(O)cc2O[C@@H]1c1cc(O)c(O)c(O)c1)c1cc(O)c(O)c(O)c1 [EGCg, (−)-epigallocatechin gallate]
0.019 ± 0.0030 | 0.009 ± 0.0008 |  |  | O=C(O[C@H]1Cc2c(O)cc(O)cc2O[C@@H]1c1cc(O)c(O)c(O)c1)c1cc(O)c(O)c(O)c1 [GCg]
0.034 ± 0.0092 | 0.011 ± 0.0011 |  |  | O=C(O[C@H]1Cc2c(O)cc(O)cc2O[C@@H]1c1ccc(O)c(O)c1)c1cc(O)c(O)c(O)c1 [Cg, (−)-catechin gallate]

SMILES | Kq value (Stern–Volmer quenching constant) against BSA [1] | Kq value (Stern–Volmer quenching constant) against HSA [2] | effect on fluorescence intensity of Trp residues of BSA ([1]; excitation 280 nm) | shift of fluorescence peak wavelength of BSA ([1]; excitation 280 nm)
Oc1cc(O)c2c(c1)O[C@H](c1cc(O)c(O)c(O)c1)[C@@H](O)C2 [GC] | 0.001 ± 0.0001 | 0.001 ± 0.0001 |  | 
Oc1cc(O)c2c(c1)O[C@H](c1cc(O)c(O)c(O)c1)[C@H](O)C2 [EGC] | 0.001 ± 0.0003 | 0.001 ± 0.0002 |  | 

Reference: publication PMC6155608, “Substitution at the C-3 Position of Catechins Has an Influence on the Binding Affinities against Serum Albumin” (Molecules : A Journal of Synthetic Chemistry and Natural …, 2017)
